{"source": "patent US20220106282A1", "about": "“TREATMENT FOR BREAST CANCER, INCLUDING TRIPLE-NEGATIVE BREAST CANCER” (priority 2018, published 2022)", "key": {"[1]": {"tested_on": "MCF-7 breast cancer cells", "settings": "RU 2619457; cited from earlier work"}, "[2]": {"tested_on": "ovariectomized rats", "experiment": "Biochemical parameters of ovariectomized rats", "type": "in vivo, rat", "settings": "ovariectomised rats, EE 0.1 mg/kg bw"}, "[3]": {"tested_on": "uterine body", "experiment": "Hormonal effect: uterine body weight in tumor-bearing mice", "type": "in vivo, mouse", "settings": "Tamoxifen-1 group, 4 mg/kg", "method": "To estimate the hormonal effect of the medicament, the weight of the uterine body without uterine horns was measured (Table 9)."}, "[4]": {"experiment": "Hormonal effect: uterine body weight in tumor-bearing mice", "type": "in vivo, mouse", "settings": "Tamoxifen-1 group, 4 mg/kg"}, "[5]": {"tested_on": "uterine body", "experiment": "Hormonal effect: uterine body weight in tumor-bearing mice", "type": "in vivo, mouse", "settings": "Tamoxifen-1 group, 4 mg/kg; estrous phase E"}, "[6]": {"tested_on": "breast tumors in female FVB mice transgenic for HER-2/neu", "experiment": "Antitumor activity on model of multiple breast tumors in HER-2/neu transgenic mice", "settings": "for Average total volume of tumors in mice (M) / Average volume of tumors present at the beginning of the experiment (M): i.g. daily", "method": "Two adenocarcinoma subtypes can be differentiated, in particular ER+, PR−, and ER−, PR− [2].\nThe study was carried out in female FVB mice transgenic for HER-2/neu by conventional category; the strain was obtained from the mouse bank Charles River Laboratories (Italy). At the beginning of the study the animals were 21-41 weeks old having weight of 25 to 30 g.\nThe study medicament was administered i.g. using a metal atraumatic gavage (with the procedure corresponds to the oral route of administration in clinical settings). The medicament was administered in a single daily dose (20 mg/kg of body weight) and 5-fold daily dose of 100 mg/kg of body weight. Ex tempore solutions of the medicament for administration were prepared in olive oil (refined olive oil supplemented with unrefined extra virgin olive oil available under Global Village “Clasico” trademark, lot L:183351116, expiry date 26 Apr. 2020, BAIEO, Spain). The administered volume was 0.1 ml per 10 g of a mouse body weight (0.2 ml of a ready-to-use formulation for a mouse of 20 g). The medicament administration was started 24 hours after the randomization. The duration of the administration course was 27-28 days.\nThis dose corresponds to a human daily dose of 20 mg/kg.\nThe control groups were given the olive oil (placebo).\nThe evaluation criteria included the clinical observation data, animals body weights, time of death (if applicable), tumor growth over time, pathomorphological examination data (verification of a neoplasm during autopsy, assessment of toxic effects by macroscopic presentation of changes in the internal organs).\nThe animals body weights were recorded before the first administration of the medicaments and then twice per week using a verified high-speed electronic laboratory balance Ohaus Scout Pro (USA) with a maximum load of 2000 g and a measurement step of 0.1 g.\nMacroscopically detectable tumor nodes were measured in animals once per week during weighing process. Two linear dimensions including the largest one and the largest rectangular to the former were recorded for each of the nodes. The largest dimension was taken as a length (a) and the second dimension as a width (b) of the tumor nodes. A tumor volume was calculated by the expression as follows: […]\nThe efficacy of the therapy was assessed by recording a change in the average tumor volume, tumor growth inhibition (TGI), and the average total tumor volumes and its change over time in each of the mice.\nThe percent of tumor growth inhibition was calculated by the expression as follows:\nTGI=(Vctrl−Vexp)/Vctrl×100(%),\nwhere Vctrl is an average tumor volume in a control group, and Vexp is an average tumor volume in an experimental group.\nThe primary data from individual forms were transferred to Microsoft Excel 2007 books. The group arithmetic average (M) and standard deviation (m) were calculated for all quantitative data. The statistical analysis was performed using the statistical software GraphPad Prism 6.0. The differences between the groups were assessed using ANOVA regression analysis and the Fisher's exact test."}, "[7]": {"settings": "first class: high solubility, high permeability, second class: low solubility; cited from earlier work"}, "[8]": {"tested_on": "uterus", "settings": "literature / prior art; cited from earlier work"}, "[9]": {"settings": "Tamoxifen group, dose 1.4 mg/kg, Day 6"}, "[10]": {"settings": "Tamoxifen group, dose 1.4 mg/kg, Day 13"}, "[11]": {"settings": "Tamoxifen group, dose 1.4 mg/kg, Day 20"}, "[12]": {"settings": "Tamoxifen group, dose 1.4 mg/kg, Day 27"}, "[13]": {"settings": "Tamoxifen group, dose 1.4 mg/kg, Day −1"}, "[14]": {"settings": "Tamoxifen group, dose 1.4 mg/kg, Day 27 vs Day −1"}, "[15]": {"settings": "Tamoxifen-1 group, 4 mg/kg i.g. daily, end of study"}}, "note": "Several values for one entry are separate records, joined by “and”; a condition that tells them apart may be missing. Identical values can stand only once. Marks after values point to notes of the source that are not given here.", "data": [{"smiles": "C[C@H]1Oc2cc(OS(N)(=O)=O)ccc2C2=C1C1=CCC[C@H](OS(N)(=O)=O)[C@@]1(C)CC2", "note": "[3,17αβ-disulfamoyloxy-7β-methyl-D-homo-6-oxa-estra-1,3,5(10), 8,14-pentaen]", "values": [{"measurement": "Growth of MCF-7 breast cancer cells", "setting": "[1]", "value": "inhibitor of the growth"}]}, {"smiles": "C#C[C@]1(O)CC[C@H]2[C@@H]3CCc4cc(O)ccc4[C@H]3CC[C@@]21C", "note": "[EE, 17α-ethinyl estradiol, reference compound]", "values": [{"measurement": "Uterus weight", "setting": "[2]", "value": "164 ± 11", "unit": "mg/100 g bw"}]}, {"smiles": "CC/C(=C(\\c1ccccc1)c1ccc(OCCN(C)C)cc1)c1ccccc1", "note": "[Tamoxifen, reference compound]", "values": [{"measurement": "Uterine body weight", "setting": "[3]; all mice", "value": "32 ± 2", "unit": "mg"}, {"measurement": "Uterine body weight", "setting": "[3]; estrous phase D", "value": 34, "unit": "mg"}, {"measurement": "Body weight", "setting": "[4]; all mice", "value": "28.2 ± 1.0", "unit": "g"}, {"measurement": "Body weight", "setting": "[4]; estrous phase D", "value": 30.5, "unit": "g"}, {"measurement": "Body weight", "setting": "[4]; estrous phase E", "value": "28.0 ± 1.0", "unit": "g"}, {"measurement": "Uterine body weight", "setting": "[5]", "value": "31 ± 2", "unit": "mg"}, {"measurement": "Average total volume of tumors in mice (M)", "setting": "[6]; [9]", "value": 0.76, "unit": "cm^3"}, {"measurement": "Average volume of tumors present at the beginning of the experiment (M)", "setting": "[6]; [9]", "value": 0.26, "unit": "cm^3"}, {"measurement": "Average total volume of tumors in mice (M)", "setting": "[6]; [10]", "value": 0.88, "unit": "cm^3"}, {"measurement": "Average volume of tumors present at the beginning of the experiment (M)", "setting": "[6]; [10]", "value": 0.3, "unit": "cm^3"}, {"measurement": "Average total volume of tumors in mice (M)", "setting": "[6]; [11]", "value": 1.38, "unit": "cm^3"}, {"measurement": "Average volume of tumors present at the beginning of the experiment (M)", "setting": "[6]; [11]", "value": 0.47, "unit": "cm^3"}, {"measurement": "Average total volume of tumors in mice (M)", "setting": "[6]; [12]", "value": 1.68, "unit": "cm^3"}, {"measurement": "Average volume of tumors present at the beginning of the experiment (M)", "setting": "[6]; [12]", "value": "0.58* cm^3"}, {"measurement": "Average total volume of tumors in mice (M)", "setting": "[6]; [13]", "value": 0.66, "unit": "cm^3"}, {"measurement": "Average volume of tumors present at the beginning of the experiment (M)", "setting": "[6]; [13]", "value": 0.23, "unit": "cm^3"}, {"measurement": "TGI (average total tumor volume)", "setting": "[6]; [9]", "value": "−12", "unit": "%"}, {"measurement": "TGI (average tumor volume)", "setting": "[6]; [9]", "value": 13, "unit": "%"}, {"measurement": "TGI (average total tumor volume)", "setting": "[6]; [10]", "value": "−32", "unit": "%"}, {"measurement": "TGI (average tumor volume)", "setting": "[6]; [10]", "value": 46, "unit": "%"}, {"measurement": "TGI (average total tumor volume)", "setting": "[6]; [11]", "value": 9, "unit": "%"}, {"measurement": "TGI (average tumor volume)", "setting": "[6]; [11]", "value": 29, "unit": "%"}, {"measurement": "TGI (average total tumor volume)", "setting": "[6]; [12]", "value": 18, "unit": "%"}, {"measurement": "% of change from baseline (average total tumor volume)", "setting": "[6]; [14]", "value": 155, "unit": "%"}, {"measurement": "% of change to the initial value (average tumor volume)", "setting": "[6]; [14]", "value": 152, "unit": "%"}, {"measurement": "TGI (average total tumor volume)", "setting": "[6]; [13]", "value": "−57", "unit": "%"}, {"measurement": "TGI (average tumor volume)", "setting": "[6]; [13]", "value": "−28", "unit": "%"}, {"measurement": "Average volume of new tumors at the end of the observation period (M)", "setting": "[6]; Tamoxifen-1 group, 4 mg/kg i.g. daily, 4 mg/kg", "value": "0.16±0.05 cm^3 and 0.16 cm^3"}, {"measurement": "Absolute number of new tumors", "setting": "[6]; [15]", "value": 21}, {"measurement": "Frequency of tumor stabilizations", "setting": "[6]; [15]", "value": 10, "unit": "%"}, {"measurement": "Average volume of new tumors, % less than that of the control group", "setting": "[6]; Tamoxifen-1 group, end of observation", "value": 52, "unit": "%"}]}, {"smiles": "CC(C)(C#N)c1cc(Cn2cncn2)cc(C(C)(C)C#N)c1", "note": "[anastrazole]", "values": [{"measurement": "BCS class", "setting": "[7]", "value": "first class"}]}, {"smiles": "C[C@]12CC[C@@H]3c4ccc(OS(N)(=O)=O)cc4CC[C@H]3[C@@H]1CCC2=O", "note": "[estrone sulfamate]", "values": [{"measurement": "Uterotropic activity", "setting": "[8]", "value": "strong uterotropic activity"}]}, {"smiles": "N#Cc1ccc(C(c2ccc(C#N)cc2)n2cncn2)cc1", "note": "[letrozole]", "values": [{"measurement": "BCS class", "setting": "[7]", "value": "first class"}]}]}
